Patent US5728726A, “Method and compositions for inhibiting protein kinases” (Cor Therapeutics, Inc., priority 1995, dated 1998)
Like-named read-outs stand apart in the source and are kept apart here. Blank lines part the entries; values can stand above or below the molecule they belong to.

How the values were obtained:
[1] = system: human cell lines (HS68, HS 27, CCD18, and WS1); details: 96 hours
CCD18 = experiment: cell proliferation under normal tissue culture conditions, CCD18; assay type: cell-based; details: Homo sapiens, read-out: IC50 CCD18
[2] = system: human cell lines (HS68, HS 27, CCD18, and WS1); experiment: cells
WS1 = experiment: cell proliferation under normal tissue culture conditions, WS1; assay type: cell-based; details: Homo sapiens, read-out: IC50 WS1
HS68 = experiment: cell proliferation under normal tissue culture conditions, HS68; details: Homo sapiens, Hs68, 96 h, read-out: IC50 HS68
HS27 = experiment: cell proliferation under normal tissue culture conditions, HS27; assay type: cell-based; details: Homo sapiens, read-out: IC50 HS27
human FGF receptor-1 = target: T1, human FGF receptor-1 (Homo sapiens, UniProt P11362); experiment: FGF receptor-1 autophosphorylation in CHO cells; assay type: cell-based
T1 construct: expressed in transfected cells; host or cells: CHO cells
Description: In order to measure FGF receptor-1 autophosphorylation, the human FGF receptor-1 cDNA was stably over-expressed in CHO cells using standard techniques. These cells were grown to confluency in RPMI with 10% fetal bovine serum, the media was replaced with serum-free RPMI and incubation continued for 18 hours prior to stimulation with BFGF (75 ng/ml) for 10 min at 37° C. in the absence of presence or PTK inhibitors in a concentration range of 0.1-30 μM Cell lysates were prepared under the same conditions as described above for the EGF receptor assay. Lysates were incubated with a monoclonal antibody directed against the FGF receptor-1 extracellular domain (prepared at COR Therapeutics, South San Francisco, Calif.) and the immunoprecipitated receptor was subjected to SDS-PAGE and Western blot analysis with antiphosphotyrosine antibodies as described above for EGF receptor.

human beta PDGFR = human beta PDGFR (Homo sapiens, UniProt P09619); experiment: beta PDGF receptor autophosphorylation in HR5 cells
Protein Kinase A (PKA) = Protein Kinase A (PKA) (Homo sapiens, UniProt P17612); experiment: Protein Kinase A non-radioactive kinase assay (UBI)
Protein Kinase C (PKC) = experiment: Protein Kinase C non-radioactive kinase assay (UBI); details: at a concentration of 40 μm
HS68 cells = experiment: PDGF BB-induced [3H]thymidine incorporation into HS68 cells; assay type: cell-based; details: Homo sapiens, Hs68, read-out: concentration blocking PDGF BB induced thymidine incorporation by 50%
Description: […]. Since there are many reports in the literature implicating PDGF in diseases such as glomerulonephritis, cancer, atherosclerosis, and restenosis we tested 292 for its ability to block PDGF induced cell proliferation. A human primary fibroblast cell line, HS68 (ATCC), was plated into 96 well dishes at 150,000 cells/well in media containing 10% fetal bovine serum in DMEM. The cells were incubated at 37° C. for 7-10 days at which time they had become confluent and quiescent. […] To determine the level of cell proliferation, […] of [^3 H ]thymidine were added to each well and incubation was continued for an additional 5 hours. Cells were then washed with 5% cold trichloroacetic acid (TCA), solubilized in 0.2N NaOH, 0.1% SDS and the amount of [^3 H]thymidine incorporation was determined. […].

recombinant c-src = recombinant c-src (Homo sapiens, UniProt P12931); experiment: recombinant c-src kinase microtiter plate assay
recombinant c-src, sequence (P12931 whole entry): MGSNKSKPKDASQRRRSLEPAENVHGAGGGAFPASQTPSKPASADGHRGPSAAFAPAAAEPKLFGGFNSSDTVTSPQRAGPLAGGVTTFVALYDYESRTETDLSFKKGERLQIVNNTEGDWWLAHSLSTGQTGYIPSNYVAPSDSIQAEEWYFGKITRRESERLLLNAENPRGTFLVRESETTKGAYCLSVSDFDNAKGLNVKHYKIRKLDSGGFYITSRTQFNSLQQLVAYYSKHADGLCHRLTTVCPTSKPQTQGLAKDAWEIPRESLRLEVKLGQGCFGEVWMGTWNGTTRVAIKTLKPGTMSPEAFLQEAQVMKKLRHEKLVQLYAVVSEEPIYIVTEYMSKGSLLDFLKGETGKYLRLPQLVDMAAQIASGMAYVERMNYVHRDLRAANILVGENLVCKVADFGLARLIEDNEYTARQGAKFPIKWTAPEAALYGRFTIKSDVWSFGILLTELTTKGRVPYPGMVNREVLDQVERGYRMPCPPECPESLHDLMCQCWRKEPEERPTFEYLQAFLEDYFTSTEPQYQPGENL

human beta PDGFR, sequence (P09619 33-1106): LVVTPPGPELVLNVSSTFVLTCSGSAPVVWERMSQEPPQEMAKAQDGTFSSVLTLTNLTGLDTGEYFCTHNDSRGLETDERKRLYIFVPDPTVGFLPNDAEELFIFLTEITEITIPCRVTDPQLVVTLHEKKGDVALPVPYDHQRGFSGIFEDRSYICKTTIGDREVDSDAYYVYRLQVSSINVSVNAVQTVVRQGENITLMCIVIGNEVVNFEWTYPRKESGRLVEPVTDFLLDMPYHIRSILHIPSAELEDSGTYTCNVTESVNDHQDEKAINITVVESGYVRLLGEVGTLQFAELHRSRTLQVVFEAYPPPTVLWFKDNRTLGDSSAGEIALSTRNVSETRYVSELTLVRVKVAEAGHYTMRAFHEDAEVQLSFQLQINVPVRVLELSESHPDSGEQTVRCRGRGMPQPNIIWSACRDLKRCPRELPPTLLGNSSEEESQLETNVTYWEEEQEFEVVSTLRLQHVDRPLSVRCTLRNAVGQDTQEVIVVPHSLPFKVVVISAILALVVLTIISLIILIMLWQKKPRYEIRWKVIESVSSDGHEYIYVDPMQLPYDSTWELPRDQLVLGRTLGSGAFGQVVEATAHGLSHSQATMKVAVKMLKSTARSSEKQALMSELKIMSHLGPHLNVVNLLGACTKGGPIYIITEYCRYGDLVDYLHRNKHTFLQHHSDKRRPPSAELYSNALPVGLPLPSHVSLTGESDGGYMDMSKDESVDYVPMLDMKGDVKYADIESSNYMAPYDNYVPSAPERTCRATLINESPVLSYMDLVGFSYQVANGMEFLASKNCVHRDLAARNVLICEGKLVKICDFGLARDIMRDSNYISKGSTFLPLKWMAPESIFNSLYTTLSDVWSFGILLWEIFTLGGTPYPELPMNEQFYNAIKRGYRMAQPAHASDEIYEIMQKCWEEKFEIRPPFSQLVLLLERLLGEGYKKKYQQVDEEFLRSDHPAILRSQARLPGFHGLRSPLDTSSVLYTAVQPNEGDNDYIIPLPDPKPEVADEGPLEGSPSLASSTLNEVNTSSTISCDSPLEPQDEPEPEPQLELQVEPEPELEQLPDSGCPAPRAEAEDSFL
T1 sequence (P11362 22-822): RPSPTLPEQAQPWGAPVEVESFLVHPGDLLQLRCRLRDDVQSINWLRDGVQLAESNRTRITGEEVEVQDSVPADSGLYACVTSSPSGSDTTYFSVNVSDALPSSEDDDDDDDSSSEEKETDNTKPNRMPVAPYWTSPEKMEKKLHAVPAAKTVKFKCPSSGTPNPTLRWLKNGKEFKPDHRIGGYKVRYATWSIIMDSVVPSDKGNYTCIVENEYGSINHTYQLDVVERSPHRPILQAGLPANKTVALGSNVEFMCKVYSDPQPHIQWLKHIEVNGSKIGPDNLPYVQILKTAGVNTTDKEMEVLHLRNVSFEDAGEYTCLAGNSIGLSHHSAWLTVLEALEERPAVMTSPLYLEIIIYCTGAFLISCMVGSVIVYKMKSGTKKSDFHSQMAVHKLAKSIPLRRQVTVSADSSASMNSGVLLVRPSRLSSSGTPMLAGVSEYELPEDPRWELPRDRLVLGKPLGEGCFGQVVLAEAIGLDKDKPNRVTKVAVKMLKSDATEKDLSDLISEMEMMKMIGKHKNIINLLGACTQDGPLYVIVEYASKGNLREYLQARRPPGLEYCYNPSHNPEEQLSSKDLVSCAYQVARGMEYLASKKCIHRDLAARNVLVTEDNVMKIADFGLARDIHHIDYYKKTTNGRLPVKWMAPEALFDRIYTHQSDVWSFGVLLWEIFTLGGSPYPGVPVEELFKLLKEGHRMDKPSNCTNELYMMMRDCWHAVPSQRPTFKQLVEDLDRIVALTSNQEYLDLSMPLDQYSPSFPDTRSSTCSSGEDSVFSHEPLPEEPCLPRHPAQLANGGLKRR

IC50 (human FGF receptor-1; Table 2, inhibition of protein kinase activity): > 30000 nM
inhibition of FGF receptor autophosphorylation (human FGF receptor-1; concentrations as high as 30 μM): no detectable inhibition
IC100 (human beta PDGFR; read-out: concentrations at which complete inhibition was observed): > 0.2 µM
IC50 (Protein Kinase A (PKA)): > 40000 nM
reduction in PKA activity (Protein Kinase A (PKA); at a concentration of 40 μm): did not achieve a 50% reduction
reduction in PKC activity (Protein Kinase C (PKC)): did not achieve a 50% reduction
IC50 (HS68 cells): 16 nM
Compound: COc1cc(O)c2c(c1)/C=C/C[C@H](O)[C@H](O)C(=O)/C=C\C[C@H](C)OC2=O [Compound 292]
decrease in cell growth of any of the cell lines tested ([1]; concentrations up to 10 μm): no decrease
IC50 (CCD18; Table 3, 96 hours, 10% fetal bovine serum): > 30000 nM
inhibition at 30 µM ([2]; 96 h, read-out: decrease in cell growth): 10 to 20%
IC50 (WS1; WS1, Table 3, 96 hours, 10% fetal bovine serum): > 30000 nM
IC50 (HS68): > 30000 nM
IC50 (HS27; HS27, Table 3, 96 hours, 10% fetal bovine serum): > 30000 nM

Compound: COC(=O)[C@@]1(O)C[C@H]2O[C@]1(C)n1c3ccccc3c3c4c(c5c6ccccc6n2c5c31)C(=O)NC4 [Compound K252a, K252a, reference compound]
IC50 (CCD18; 96 h): 1000 nM
IC50 (recombinant c-src): 20 nM
IC50 ([2]; read-out: concentration range inhibiting cell growth by 50%): 1000 to 12000 nM
IC50 (WS1; WS1, 96 h): 5000 nM
IC50 (HS68): 5000 nM
IC50 (HS27; HS27, 96 h): 12000 nM
IC50 (human beta PDGFR): 270 nM
IC50 (Protein Kinase A (PKA)): 70 nM
IC50 (Protein Kinase A (PKA); IC50 PKA, Table 2, inhibition of protein kinase activity): 70 nM

Compound: CN[C@@H]1C[C@H]2O[C@@](C)([C@@H]1OC)n1c3ccccc3c3c4c(c5c6ccccc6n2c5c31)C(=O)NC4 [Staurosporin, reference compound]
concentration completely blocking the growth of all of the cell lines [1]: 10 nM
